Active and inactive are the calls of the source. No cut-off for these calls is given here.
Key:
Saccharomyces cerevisiae [1] = assay: DNA damaging activity against YCp50 transformed Saccharomyces cerevisiae in galactose minimal medium after 41 hrs
Saccharomyces cerevisiae [2] = assay: DNA damaging activity against RAD52 transformed Saccharomyces cerevisiae in galactose minimal medium after 41 hrs; format: functional, organism-based
Saccharomyces cerevisiae [3] = assay: DNA damaging activity against RAD52 transformed Saccharomyces cerevisiae in glucose minimal medium after 41 hrs; format: functional, organism-based
Nucleic Acid [4] = assay: Induction of DNA cleavage assessed as relaxation of supercoiled plasmid DNA at > 1 mM by cell free assay; format: nucleic-acid assay
Nucleic Acid [5] = assay: Induction of DNA cleavage assessed as relaxation of supercoiled plasmid DNA at > 1 mM in presence of Cu2+ by cell free assay; format: nucleic-acid assay

Row | Compound | IC50 (Saccharomyces cerevisiae [1]) [µM] | IC50 (Saccharomyces cerevisiae [2]) [µM] | IC50 (Saccharomyces cerevisiae [3]) [µM] | Activity (Nucleic Acid [4]) | Activity (Nucleic Acid [5])
1 | COc1c(O)cc2c(=O)oc3c(OC)c(O[C@@H]4OC[C@@H](O)[C@H](O)[C@H]4O)cc4c(=O)oc1c2c34 | 23.1 | > 1000 | 3.1 | – | –
2 | C[C@@H]1O[C@@H](Oc2c(-c3ccc(O)cc3)oc3cc(O)cc(O)c3c2=O)[C@H](O)[C@H](O)[C@H]1O [AFZELIN] | 9.3 | > 1000 | 7.4 | inactive | inactive
3 | COc1c(O[C@@H]2O[C@H](CO)[C@@H](O)[C@H](O)[C@H]2O)cc2c(=O)oc3c4c(cc5c(=O)oc1c2c35)OCO4 [NYSSOSIDE] | 0.341 | 14.4 | 1.12 | – | –

— ChEMBL document CHEMBL1150171, “DNA-damaging agents from Crypteronia paniculata” (J Nat Prod, 2002)
